# Data reported in BindingDB's records for doi:10.1016/j.bmcl.2012.03.090 (Spanish National Cancer Research Centre (Cnio), 2012).
# Target: Phosphatidylinositol 3-kinase regulatory subunit alpha/4,5-bisphosphate 3-kinase catalytic subunit alpha isoform (Homo sapiens, UniProt P27986+P42336)
# Experiment: Inhibition of human PI3Kalpha (p110alpha/p85alpha) by ADP accumulation based HTRF assay
# Phosphatidylinositol 3-kinase regulatory subunit alpha/4,5-bisphosphate 3-kinase catalytic subunit alpha isoform, sequence (P27986 whole entry, canonical isoform): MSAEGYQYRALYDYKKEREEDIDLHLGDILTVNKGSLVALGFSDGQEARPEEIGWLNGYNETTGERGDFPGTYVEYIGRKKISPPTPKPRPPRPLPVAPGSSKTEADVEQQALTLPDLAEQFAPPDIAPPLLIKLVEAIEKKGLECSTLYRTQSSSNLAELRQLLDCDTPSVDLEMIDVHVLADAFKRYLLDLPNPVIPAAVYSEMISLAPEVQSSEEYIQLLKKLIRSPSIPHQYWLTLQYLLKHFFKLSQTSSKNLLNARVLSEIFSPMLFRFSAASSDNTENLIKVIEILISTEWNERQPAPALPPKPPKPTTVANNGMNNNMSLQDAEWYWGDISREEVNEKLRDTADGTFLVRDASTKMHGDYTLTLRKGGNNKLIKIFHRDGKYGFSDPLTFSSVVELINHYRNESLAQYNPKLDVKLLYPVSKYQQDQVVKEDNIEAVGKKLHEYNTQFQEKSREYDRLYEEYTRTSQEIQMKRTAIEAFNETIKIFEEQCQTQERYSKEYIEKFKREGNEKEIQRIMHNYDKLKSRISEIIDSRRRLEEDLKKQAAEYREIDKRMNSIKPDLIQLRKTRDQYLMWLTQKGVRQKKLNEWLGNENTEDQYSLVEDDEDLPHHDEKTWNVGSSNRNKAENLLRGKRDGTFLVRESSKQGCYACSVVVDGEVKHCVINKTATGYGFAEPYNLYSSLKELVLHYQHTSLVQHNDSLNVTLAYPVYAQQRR
# Phosphatidylinositol 3-kinase regulatory subunit alpha/4,5-bisphosphate 3-kinase catalytic subunit alpha isoform, sequence (P42336 whole entry, canonical isoform): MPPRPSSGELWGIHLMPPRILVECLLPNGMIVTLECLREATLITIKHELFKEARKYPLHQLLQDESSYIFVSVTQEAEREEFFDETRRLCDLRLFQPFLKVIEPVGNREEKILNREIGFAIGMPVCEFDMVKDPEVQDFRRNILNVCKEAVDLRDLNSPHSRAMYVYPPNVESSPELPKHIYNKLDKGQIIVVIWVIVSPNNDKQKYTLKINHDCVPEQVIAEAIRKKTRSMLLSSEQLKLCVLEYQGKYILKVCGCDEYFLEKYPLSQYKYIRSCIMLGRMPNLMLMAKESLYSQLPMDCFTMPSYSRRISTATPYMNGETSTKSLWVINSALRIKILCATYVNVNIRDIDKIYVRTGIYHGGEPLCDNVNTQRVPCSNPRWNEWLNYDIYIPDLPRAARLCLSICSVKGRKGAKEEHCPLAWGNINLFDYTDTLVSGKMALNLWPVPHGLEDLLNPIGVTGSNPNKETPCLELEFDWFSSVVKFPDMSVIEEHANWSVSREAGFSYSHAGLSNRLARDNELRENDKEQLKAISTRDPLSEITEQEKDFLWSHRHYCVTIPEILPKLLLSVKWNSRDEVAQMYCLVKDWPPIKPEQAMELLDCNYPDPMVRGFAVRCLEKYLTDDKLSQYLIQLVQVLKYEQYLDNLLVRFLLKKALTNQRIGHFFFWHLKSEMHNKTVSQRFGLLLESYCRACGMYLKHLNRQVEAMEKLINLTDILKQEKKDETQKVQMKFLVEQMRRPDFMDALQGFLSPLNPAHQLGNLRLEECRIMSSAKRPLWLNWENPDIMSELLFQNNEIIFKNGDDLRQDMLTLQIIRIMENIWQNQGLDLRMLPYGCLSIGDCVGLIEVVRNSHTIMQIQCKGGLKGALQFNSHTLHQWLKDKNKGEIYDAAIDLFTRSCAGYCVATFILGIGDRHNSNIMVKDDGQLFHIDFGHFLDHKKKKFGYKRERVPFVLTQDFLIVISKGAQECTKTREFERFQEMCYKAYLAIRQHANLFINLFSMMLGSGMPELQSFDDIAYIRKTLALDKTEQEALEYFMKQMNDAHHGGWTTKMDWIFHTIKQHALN
row,SMILES,IC50 [nM]
1,CN(C)CC(=O)N1CCN(Cc2cn3cc(-c4cnc(N)nc4)nc(N4CCOCC4)c3n2)CC1,34
2,Cc1ncc(-c2cn3cc(CN4CCN(S(C)(=O)=O)CC4)nc3c(N3CCOCC3)n2)cn1,21.1
3,COc1ccc(-c2cn3cc(CN4CCN(S(C)(=O)=O)CC4)nc3c(N3CCOCC3)n2)cn1,4550
4,CC(=O)Nc1ccc(-c2cn3cc(CN4CCN(S(C)(=O)=O)CC4)nc3c(N3CCOCC3)n2)cn1,210
5,CS(=O)(=O)N1CCN(Cc2cn3cc(-c4cnc5[nH]ccc5c4)nc(N4CCOCC4)c3n2)CC1,113
6,Cc1ccc(-c2cn3cc(CN4CCN(S(C)(=O)=O)CC4)nc3c(N3CCOCC3)n2)cn1,776
7,CS(=O)(=O)N1CCN(Cc2cn3cc(-c4ccc(N)nc4)nc(N4CCOCC4)c3n2)CC1,169
8,Cc1ccncc1-c1cn2cc(CN3CCN(S(C)(=O)=O)CC3)nc2c(N2CCOCC2)n1,468
9,CS(=O)(=O)N1CCC2(CC1)CN(Cc1cn3cc(-c4cnc(N)nc4)nc(N4CCOCC4)c3n1)C2,110
10,Cc1nc(N)ncc1-c1cn2cc(CN3CCN(S(C)(=O)=O)CC3)nc2c(N2CCOCC2)n1,32.3
